Laboratory results: PMC8878317, “Chemogenomics identifies acetyl-coenzyme A synthetase as a target for malaria treatment and prevention” (Cell Chemical Biology, 2022)

Key:
Assay type in all cases: cell-based
[1] = test system: histone acetylation in P. falciparum 3D7-A10; test: Histone acetylation Western blot, wild-type 3D7-A10; details: trophozoites, 3 h exposure
Protocol: Synchronous trophozoite-stage (24-32hr post-invasion) cultures at 3–5% parasitemia and 2% hematocrit in complete medium were exposed to test compounds for 3 hr at 37°C. […] DMSO was tested at 0.1% as the vehicle-only control. Following drug exposure, parasites were isolated via saponin lysis ice-cold 0.1% saponin in phosphate-buffered saline (PBS). Isolated parasites were washed 3x in ice-cold PBS containing protease inhibitor cocktail (cOmplete mini, Roche) and lysed in 1x Laemmli Sample Buffer (Biorad) with 5% beta-mercaptoethanol (Sigma-Aldrich). Samples were heated at 99°C for 10 min before centrifugation. Equal quantities of solute were separated on Protean TGX Precast Gels (4–20% gradient) in Tris-SDS-glycine buffer, transferred to nitrocellulose membrane by iblot (Invitrogen), and blocked for 1h in tris-buffered saline (TBS) with 5% skim milk powder. Blocked membranes were probed with antibodies recognising tetra-acetylated H4 (H4ac4, Sigma-Aldrich 06–866), H4K8ac (CST #2594), H3K9ac (CST #9649) or H3 (CST #4499), at 1:1000 dilution, and PfBiP ([Shonhai et al., 2007]) (at 1:5000 dilution) in 3% milk powder TBS with 0.1% Tween 20 at 4°C overnight and with 800CW goat α-rabbit IgG (Licor) at 1:10,000 dilution. Membranes were visualised using a Licor Odyssey CLX imaging system and quantified using ImageJ.

P. falciparum 3D7-A10 = test: Blood-stage dose-response assay (SYBR Green I, 72 hr), 3D7 / 3D7-A10 parent; details: Plasmodium falciparum, mean ± SD, n bioreplicates, read-out: 3D7-A10 parent EC50 ± SD
Protocol: (§1) The 3D7-A10 clone has been used in previous in vitro drug selection and sequencing efforts ([Cowell et al., 2018]). Dd2 parasites were obtained from T. Wellems (NIAID, NIH). Dd2-B2 is a genetically homogeneous line that was cloned from Dd2 by limiting dilution in the Fidock lab. Parasite strains were cultured in 3-5% human O+ hematocrit in RPMI 1640 (Life Technologies) supplemented with 28 mM NaHCO3, 25 mM HEPES, and hypoxanthine ([…]). Depending on the parasite line, the media either contained gentamycin (25 μg/mL), or no antibiotic and was additionally supplemented with 0.5% AlbuMAX II (Life Technologies) and/or O+ human serum (heat inactivated and pooled). Blood and serum products were obtained from Interstate Blood Bank. Cultures were maintained at 37°C in 1.1% O2, 4% CO2, and 95% N2. Parasite populations were synchronized by 5% sorbitol treatment ([Lambros and Vanderberg, 1979]).
(§2) For in vitro–selected lines, drug susceptibility was measured by SYBR Green I–based assay ([Johnson et al., 2007]; [Smilkstein et al., 2004]). Ring-stage parasites were cultured for 72 hr at 1% hematocrit and 1% starting parasitemia in 384-well black clear-bottom plates containing test compounds plated in triplicate in 12-point serial dilutions. Lysis buffer (0.16% w/v saponin, 1.6% Triton X-100, 5 mM EDTA, and 20 mM Tris-HCl, pH 7.4) with SYBR Green I fluorescent dye (Invitrogen) was added, and fluorescence readings were taken (excitation at 494 nm, emission at 530 nm). Alternatively, Dd2-B2 ring-stage cultures at 0.3% parasitemia and 1% hematocrit were exposed for 72 hr to a range of ten drug concentrations that were 2-fold serially diluted in duplicates along with drug-free controls. Parasite survival was assessed by flow cytometry on an Accuri C6 (BD Biosciences) using SYBR Green and MitoTracker Deep Red FM (Life Technologies) as nucleic acid stain and vital dyes respectively. EC50 values were calculated using a nonlinear regression curve fit in Prism Software version 8 (GraphPad).

[2] = test system: P. falciparum Dd2:A597V (CRISPR edited PfAcAS); test: Blood-stage dose-response assay, CRISPR-edited Dd2:A597V line; details: Plasmodium falciparum, mean ± SD, n bioreplicates
Protocol: as §2
(§3) Mutant PfAcAS-A597V and PfAcAS-T648M parasites were generated using CRISPR/Cas9. The guide RNAs for PfAcAS-A597V (5′-[…]-3′; 5′-[…]-3′) and for PfAcAS-T648M (5′-[…]-3′) were designed using Benchling (https://benchling.com/) to targeting sites in PfAcAS that were 6-14 bp upstream of the A597 codon and 6 bp downstream of the T648 codon respectively. Complementary oligos encoding the gRNA sequences (5′- tatt[…]-3’ / 5’-aaac[…]-3’; 5’-tatt[…]-3’ / 5’-aaac[…]-3’ and 5’- tattg[…]-3’ / 5’-aaac[…]c-3’ ) were phosphorylated using T4 polynucleotide kinase and annealed (95°C for 5 min, then step down of 5°C/min to 25°C) prior to ligation into the BbsI-digested pDC2-coCas9-U6.2-hDHFR plasmid ([Lim et al., 2016]). The donor template for PfAcAS-A597V was synthesized (ThermoFisher) as a 700 bp Genestring fragment spanning position 1468 to 2168 of the PfAcAS gene, and the donor for PfAcAS-T648M synthesized as a 829 bp fragment spanning position 1468 to 2297 and inserted into the AatII/EcoRI sites of the pDC2-coCas9-gRNA-hDHFR plasmid by Gibson assembly. Ring-stage parasites (Dd2) at 5% parasitemia were transfected by electroporation (BioRad Gene Pulser II at 0.310 kV and 950 μF) with 50 μg of each plasmid (plasmid 1: pDC2-coCas9-AcAS-A597V-gRNA1-hDHFR, plasmid 2: pDC2-coCas9-gRNA2-hDHFR, or plasmid 3: pDC2-coCas9-AcAS-T648M-gRNA1-hDHFR), and parasites selected for 10 days with 2.5 nM WR99210 (Jacobus Pharmaceuticals), followed by removal of drug pressure. After confirmation of editing in the bulk culture, clones were isolated by serial limiting dilution and confirmed by Sanger sequencing after PCR amplification from genomic DNA using forward primer 5′-[…]-3′ and reverse primer 5′-[…]-3′ (for A597V) and 5′-[…]-3′ (for T648M).

[3] = test system: P. falciparum Dd2:T648M (CRISPR edited PfAcAS); test: Blood-stage dose-response assay, CRISPR-edited Dd2:T648M line; details: Plasmodium falciparum, mean ± SD, n bioreplicates
Protocol: as §2, §3

P. falciparum Dd2-B2 = test: Blood-stage dose-response assay (72 hr), Dd2 / Dd2-B2 parent; details: Plasmodium falciparum, DD2, read-out: Dd2-B2 parent EC50 ± SD (nM)
Protocol: as §1, §2

| Structure (SMILES) | acetylation of H4K8ac, H3K9ac and tetra-acetylated H4 (H4Ac4) histone markers relative to DMSO [1] | EC50 (P. falciparum 3D7-A10) | EC50 [2] | EC50 [3] | EC50 (P. falciparum Dd2-B2) |
| --- | --- | --- | --- | --- | --- |
| CC(/C=C/C(=O)NO)=C\[C@@H](C)C(=O)c1ccc(N(C)C)cc1 [trichostatin A] | significant increase | – | – | – | – |
| OC(c1cc(C(F)(F)F)nc2c(C(F)(F)F)cccc12)C1CCCCN1 (centres unmarked) [Mefloquine] | – | 18 ± 4.6 nM | 31 ± 17 nM | 20 ± 11 nM | 15 ± 5.7 nM |
